The nature of one series: in vitro. Format: in vitro ADME. The note with it: carboxylesterase, 37° C., mean ± SD, n = 3, read-out: Hydrolysis Rate; for metabolised at 10 s: 10 sec., SD printed on next line: 0.43 (methyl ester), 11.9 (acetoxymethyl ester); for metabolised at 1 min: SD printed on next line: 0.34 (methyl ester), 3.4 (acetoxymethyl ester); for metabolised at 0.05 h: 3 min., 1.1 (acetoxymethyl ester); for metabolised at 0.05 h / metabolised at 5 min: SD: 0.49 (methyl ester); for metabolised at 5 min: 2.2 (acetoxymethyl ester); for metabolised at 10 min: SD printed on next line: 0.08 (methyl ester); for metabolised at 10 min / metabolised at 0.5 h: 0.0 (acetoxymethyl ester); for metabolised at 0.5 h: 30 min., SD printed on next line: 1.51 (methyl ester). The procedure:
(§1) Changes with time in the hydrolysis rate of 3-carboxy-PROXYL methyl ester and 3-carboxy-PROXYL acetoxymethyl ester by an esterase were examined.
(§2) 200 μl of a 10 mM test sample solution was mixed with 800 μl of 5 micro units of an esterase (carboxy esterase, carboxylic ester hydrolase; EC 3.1.1.1 manufactured by Sigma, catalogue No. E3128). The mixture was incubated at 37° C. for 10 seconds, 1 minute, 3 minutes, 5 minutes, 10 minutes, and 30 minutes, respectively. The mixture was then analyzed by HPLC to calculate the hydrolysis rate from the amount ratio of the unchanged product to 3-carboxy-PROXYL which is a hydrolysate thereof.
(§3) HPLC was performed using a UV-VIS detector (UV-8020), a dual pump (CCPS), a column (ODS-80Ts), and a TSK precolumn (BSA-ODS) all manufactured by Tosoh Corp.
(§4) Mobile phase: 20 mM phosphate buffer solution (pH 2.2)/methanol=60/40

Series [1] has as its system esterase (carboxy esterase, carboxylic ester hydrolase; EC 3.1.1.1). Kind of series: in vitro. Format: in vitro ADME. How it is done:
as §1, §2, §3, §4

The next series relates to mouse brain. The class given is in vivo. To be noted: 2.5 μmol, vena caudalis. How it is done: . An L band ESR-CT image of the head axial transverse section was measured under the following conditions.
Measuring device: Electron spin resonance spectrometry
"JES-RE31" (manufactured by JEOL Ltd.)
Magnetic field gradient: 0.45 mT/cm
Projection: 18 (every 10°)
Magnetic field modulation: 100 kHz
Time constant: 0.003 second
Measurement temperature: room temperature

A short description of series [2]: Organ distribution in mice by X-band ESR. The note with it: for Blood (% dose) / Brain (% dose): vena caudalis, 7.5 μmol (2.5 μmol for 3-carboxy-PROXYL acetoxymethyl ester).
Procedure: (§5) The test was performed using sixteen groups of three mice each (ddY, female) as experimental animals as described below. 7.5 μmol of the test samples (2.5 μmol for 3-carboxy-PROXYL acetoxymethyl ester) were administered to the vena caudalis of the mice under ether, and allowed to stand for 3, 10, and 30 minutes, respectively. The mice were then dehematized quickly and the brain was removed. The brain was homogenized with a phosphate buffer solution in an amount nine times that of the removed brain. The blood was diluted with a phosphate buffer solution in an amount nine times thereof. A potassium ferricyanide solution was added to part of the tissue thus treated so that the final concentration was 1 mM. The test samples which had become hydroxylamines by the active oxygen and the like in vivo were converted to nitroxide radicals (one electron oxidation) to prepare ESR samples.
(§6) The concentration of the test samples after one electron oxidation was measured by x-band ESR and determined as the concentration of the samples in vivo. The test sample solution in an amount equal to that administered to the mice was prepared. This solution was treated in the same way, beginning from the addition of the nine-fold phosphate buffer solution. The concentration of the test sample was measured by x-band ESR and was determined as the total dosage. 15 mm of each sample taken into a 100 μl capillary (length 116.5 mm) was put into a quartz cell to measure the ESR spectrum under the following conditions.
(§7) Measuring device: Electron spin resonance spectrometry "JES-RE1X" (manufactured by JEOL Ltd.)
Magnetic field: 331.5±5 mT
Time constant: 0.03 second
(§8) The ratio of the test samples in the brain and blood to the total dosage (% dose), the value obtained by dividing the % dose by the weight of the brain and blood (% dose/g), and the ratio of the % dose/g of the brain, which was the target organ, to the % dose/g of the blood were calculated from the ESR spectrum.
Another series can be described thus: in vivo. To be noted: mouse, iv.

Four compounds from patent US6239145A, “Nitroxyl compounds and drugs and reagents containing the same as the active ingredient” (Daiitchi Radioisotope Laboratories, Ltd., priority 1997, dated 2001) can be followed below.

Procedure for in vivo: as §5, §6, §7
Magnetic field: 331.5±5 mT
Time constant: 0.03 second
as §8

As to `CC(=O)OCOC(=O)C1CC(C)(C)N([O])C1(C)C` (centres unmarked) [3-carboxy-PROXYL acetoxymethyl ester, acetoxymethyl-2,2,5,5-tetramethylpyrrolidinyloxy-3-carboxylate], in the series “in vitro”, the metabolised at 10 s came out at 30.1%, the metabolised at 1 min worked out at 70.8%, the metabolised at 0.05 h was 93.9% and the metabolised at 5 min was found to be 96.7%. Moreover, in the series “in vitro”, the metabolised at 10 min worked out at 100% and the metabolised at 0.5 h amounted to 100%. Also, the “Speed of hydrolysis by esterase compared with methyl ester, in words” value in series [1] is given as “hydrolyzed by an esterase in a shorter period of time than 3-carboxy-PROXYL methyl ester”. Also, the “Hydrolysis by esterase, in words” value in series [1] (after 10 seconds) is listed as “slightly hydrolyzed”. Besides, in the series on mouse brain, the “L band ESR-CT: concentration inside the brain” value is recorded as “still more highly concentrated inside the brain” and the “L band ESR-CT: concentration outside the brain” value is reported as “decreased accumulation outside the brain”. Further, in series [2] (3 min.), the “Blood (% dose)” value was 6.28 % dose and the “Brain (% dose)” value was 2.26 % dose. In series [2] (10 min.), the “Blood (% dose)” value is 4.41 % dose and the “Brain (% dose)” value was 2.77 % dose. Also, in series [2] (30 min.), the “Blood (% dose)” value turned out to be 4.21 % dose and the “Brain (% dose)” value is on record as 1.98 % dose. In addition, in “in vivo”, the Kp at 10 min was 3.14 and the Kp at 0.5 h amounted to 2.88.

On to `CCOC(=O)C1CC(C)(C)N([O])C1(C)C` (centres unmarked) [3-carboxy-PROXYL ethyl ester], for which the “Blood (% dose)” value in series [2] (3 min.) was found to be 3.46 % dose; in series [2] (10 min.), 2.92 % dose; in series [2] (30 min.), 3.38 % dose. For the same compound, the “Brain (% dose)” value in series [2] (3 min.) is recorded as 0.79 % dose; in series [2] (10 min.), 0.74 % dose; in series [2] (30 min.), 0.12 % dose. The Kp at 10 min in “in vivo” lay within 0.84 to 1.78.

On to 2-ethyl-2,5,5-trimethyloxazolidinyloxy, for which the “Blood (% dose)” value in series [2] (3 min.) was 4.52 % dose; in series [2] (10 min.), 3.69 % dose; in series [2] (30 min.) it was 0.81 % dose. Besides, the entries for the “Brain (% dose)” value in series [2] (3 min.), in series [2] (10 min.) and in series [2] (30 min.) were 1.63 % dose, 1.64 % dose and 0.52 % dose, respectively. Further, the “brain to blood ratio (ratio of % dose/g of the brain to % dose/g of the blood)” value in series [2] (after 10 minutes) is 0.84-1.78.

In the case of `COC(=O)C1CC(C)(C)N([O])C1(C)C` (centres unmarked) [3-carboxy-PROXYL methyl ester], in “in vitro”, the metabolised at 10 s turned out to be 0.05%, the metabolised at 1 min was found to be 0.4%, the metabolised at 0.05 h was determined as 0.8% and the metabolised at 5 min is 1.35%. For the same compound, in the series “in vitro”, the metabolised at 10 min amounted to 2.54% and the metabolised at 0.5 h is 8.25%. In the series on mouse brain, the “L band ESR-CT: concentration inside the brain” value was “highly concentrated inside the brain” and the “L band ESR-CT: concentration outside the brain” value is “concentrated outside the brain”. In addition, in series [2] (3 min.), the “Blood (% dose)” value stood at 4.62 % dose and the “Brain (% dose)” value is recorded as 1.31 % dose. Also, in series [2] (10 min.), the “Blood (% dose)” value is recorded as 2.68 % dose and the “Brain (% dose)” value came out at 0.67 % dose. In series [2] (30 min.), the “Blood (% dose)” value is on record as 2.18 % dose and the “Brain (% dose)” value is listed as 0.21 % dose. In the series “in vivo”, this compound showed a Kp at 10 min of 0.84 to 1.78.
